Measurements from patent publication EP0485111A2, “The use of lipoxygenase and cyclooxygenase inhibitors as synergistic agents” (ZENECA LIMITED, priority 1990, dated 1992).

System: arachidonic acid induced inflammatory response
Experiment: arachidonic acid induced mouse ear inflammatory oedema test (mouse ear inflammatory model), oral dosing
Type: in vivo
Conditions: for inhibition in vivo at 3 mg/kg / inhibition in vivo at 30 mg/kg / inhibition in vivo at 10 mg/kg / inhibition in vivo at 1 mg/kg: Mus musculus, po; for inhibition (anti-inflammatory effect of the CO inhibitors): CO inhibitor alone at 1-10 mg/kg orally
Experimental: According to the test method, groups of 10 mice (25-30 g each) were dosed orally with vehicle alone (a mixture of 0.5% hydroxypropylmethylcellulose, 0.1% polysorbate 80 and water), with the 5-LO inhibitor alone, with a CO-inhibitor alone, or with a combination of 5-LO and CO inhibitors. After a period of 1 hour arachidonic acid (1 mg in 10 microlitres of acetone) was applied topically to one ear of each mouse. After a further period of 1 hour the mice were killed and a disc-shaped portion (6 mm in diameter) was punched from each ear. Comparison of the weights of the ear-discs between the arachidonic acid treated and untreated ears allows the effect of each treatment to be determined. The effect of each test compound or combination of compounds is calculated as follows ('ear weight diff.' means the mean difference in the weights of the disc-shaped portions of ear punched from the arachidonic acid-treated ear compared to the untreated ear for each mouse):- [table]

[1] = summary of Examples 1 to 10, variable

SMILES: O=C(O)Cc1ccccc1Nc1c(Cl)cccc1Cl [D, diclofenac, reference compound]
- inhibition in vivo at 3 mg/kg (Ex 8, D 3 mg/kg orally alone): 11.1%
- inhibition in vivo at 30 mg/kg (Ex 8, D 30 mg/kg orally alone): 11.4%
- inhibition in vivo at 3 mg/kg (Ex 9, D 3 mg/kg orally alone): 5.9%
- inhibition in vivo at 10 mg/kg (Ex 9, D 10 mg/kg orally alone): 4.9%
- inhibition in vivo at 30 mg/kg (Ex 9, D 30 mg/kg orally alone): 17.8%
- inhibition in vivo at 10 mg/kg (Ex 10, D 10 mg/kg orally alone): 7.4%
- inhibition in vivo at 30 mg/kg (Ex 10, D 30 mg/kg orally alone): 10.5%
- inhibition (anti-inflammatory effect of the CO inhibitors) [1]: 0 to 55%

SMILES: CC(C(=O)O)c1ccc(-c2ccccc2)c(F)c1 (stereo not shown) [F, flurbiprofen, reference compound]
- inhibition in vivo at 3 mg/kg (Ex 6, F 3 mg/kg orally alone ([1] 0 mg/kg)): 14.6%
- inhibition in vivo at 3 mg/kg (Ex 7, F 3 mg/kg orally alone ([1] 0 mg/kg)): 7.6%
- inhibition (anti-inflammatory effect of the CO inhibitors) [1]: 0 to 55%

SMILES: COc1ccc2c(c1)c(CC(=O)O)c(C)n2C(=O)c1ccc(Cl)cc1 [I, indomethacin, reference compound]
- inhibition in vivo at 10 mg/kg (Ex 1, I 10 mg/kg orally alone ([1] 0 mg/kg)): 16.9%
- inhibition in vivo at 10 mg/kg (Ex 2, I 10 mg/kg orally alone ([1] 0 mg/kg)): 27.4%
- inhibition in vivo at 3 mg/kg (Ex 3, I 3 mg/kg orally alone ([1] 0 mg/kg)): 12.8%
- inhibition in vivo at 3 mg/kg (Ex 4, I 3 mg/kg orally alone): 15.3%
- inhibition in vivo at 10 mg/kg (Ex 4, I 10 mg/kg orally alone): 55.3%
- inhibition in vivo at 3 mg/kg (Ex 5, I 3 mg/kg orally alone): 18.2%
- inhibition in vivo at 10 mg/kg (Ex 5, I 10 mg/kg orally alone): 55.6%
- inhibition in vivo at 10 mg/kg (Ex 11, I 10 mg/kg orally alone ([2] 0 mg/kg)): 30%
- inhibition in vivo at 1 mg/kg (Ex 12, I 1 mg/kg orally alone): 13%
- inhibition in vivo at 3 mg/kg (Ex 12, I 3 mg/kg orally alone): 27%
- inhibition in vivo at 10 mg/kg (Ex 12, I 10 mg/kg orally alone): 33%
- inhibition in vivo at 10 mg/kg (Ex 13, I 10 mg/kg orally alone ([3] 0 mg/kg), asterisk (*): not statistically significant): 10%
- inhibition in vivo at 10 mg/kg (Ex 14, I 10 mg/kg orally alone ([4] 0 mg/kg), asterisk (*): not statistically significant): -2.5%
- inhibition in vivo at 10 mg/kg (Ex 15, I 10 mg/kg orally alone ([5] 0 mg/kg)): 27%
- inhibition (anti-inflammatory effect of the CO inhibitors) [1]: 0 to 55%

SMILES: COC1(c2cc(F)cc(OCc3ccc4c(ccc(=O)n4C)c3)c2)CCOCC1 [[1], 6-[(3-fluoro-5-[4-methoxy-3,4,5,6-tetrahydro-2H-pyran-4-yl]phenoxy)methyl]-1-methyl-2-quinolone]
- inhibition in vivo at 1 mg/kg (Ex 1, [1] 1 mg/kg orally alone): 14.6%
- inhibition in vivo at 3 mg/kg (Ex 1, [1] 3 mg/kg orally alone): 19.1%
- inhibition in vivo at 10 mg/kg (Ex 1, [1] 10 mg/kg orally alone): 47.2%
- inhibition in vivo at 3 mg/kg (Ex 2, [1] 3 mg/kg orally alone): 9.5%
- inhibition in vivo at 10 mg/kg (Ex 2, [1] 10 mg/kg orally alone): 0.5%
- inhibition in vivo at 3 mg/kg (Ex 3, [1] 3 mg/kg orally alone): 0%
- inhibition in vivo at 10 mg/kg (Ex 3, [1] 10 mg/kg orally alone): 15.6%
- inhibition in vivo at 10 mg/kg (Ex 4, [1] 10 mg/kg orally alone (I 0 mg/kg)): 44.4%
- inhibition in vivo at 10 mg/kg (Ex 5, [1] 10 mg/kg orally alone (I 0 mg/kg)): 15.2%
- inhibition in vivo at 1 mg/kg (Ex 6, [1] 1 mg/kg orally alone): 16.7%
- inhibition in vivo at 3 mg/kg (Ex 6, [1] 3 mg/kg orally alone): 20.8%
- inhibition in vivo at 10 mg/kg (Ex 6, [1] 10 mg/kg orally alone): 15.6%
- inhibition in vivo at 1 mg/kg (Ex 7, [1] 1 mg/kg orally alone): 16.2%
- inhibition in vivo at 3 mg/kg (Ex 7, [1] 3 mg/kg orally alone): 13.3%
- inhibition in vivo at 10 mg/kg (Ex 7, [1] 10 mg/kg orally alone): 11.4%
- inhibition in vivo at 10 mg/kg (Ex 8, [1] 10 mg/kg orally alone (D 0 mg/kg)): 12.5%
- inhibition in vivo at 10 mg/kg (Ex 9, [1] 10 mg/kg orally alone (D 0 mg/kg)): 25.7%
- inhibition in vivo at 10 mg/kg (Ex 10, [1] 10 mg/kg orally alone (D 0 mg/kg)): 3.2%
- inhibition (anti-inflammatory effect of the 5-LO inhibitor) (summary of Examples 1 to 10, 5-LO inhibitor alone at 1-10 mg/kg orally, variable): 0 to 47%

SMILES: COC1(c2cc(F)cc(Sc3ccc4c(c3)OCC(=O)N4C)c2)CCOCC1 [[2], 4-[5-fluoro-3-(4-methyl-3-oxo-2,3-dihydro-4H-1,4-benzoxazin-7-ylthio)phenyl]-4-methoxytetrahydropyran]
- inhibition in vivo at 3 mg/kg (Ex 11, [2] 3 mg/kg orally alone): 15%
- inhibition in vivo at 10 mg/kg (Ex 11, [2] 10 mg/kg orally alone): 22%
- inhibition in vivo at 30 mg/kg (Ex 11, [2] 30 mg/kg orally alone): 34%
- inhibition in vivo at 30 mg/kg (Ex 12, [2] 30 mg/kg orally alone (I 0 mg/kg)): 27%

SMILES: COC1(c2ccc(Sc3ccc4c(c3)CCC(=O)N4C)s2)CCOCC1 [[3], 4-methoxy-4-[5-(1-methyl-2-oxo-1,2,3,4-tetrahydroquinolin-6-ylthio)thien-2-yl]tetrahydropyran]
- inhibition in vivo at 3 mg/kg (Ex 13, [3] 3 mg/kg orally alone, asterisk (*): not statistically significant): 17%
- inhibition in vivo at 10 mg/kg (Ex 13, [3] 10 mg/kg orally alone): 15%
- inhibition in vivo at 30 mg/kg (Ex 13, [3] 30 mg/kg orally alone, asterisk (*): not statistically significant): 20%

SMILES: COC1(c2cc(F)cc(Sc3ccc4c(c3)CCC(=O)N4C)c2)CCOCC1 [[4], 4-[5-fluoro-3-(1-methyl-2-oxo-1,2,3,4-tetrahydroquinolin-6-ylthio)phenyl]-4-methoxytetrahydropyran]
- inhibition in vivo at 3 mg/kg (Ex 14, [4] 3 mg/kg orally alone, asterisk (*): not statistically significant): 5%
- inhibition in vivo at 10 mg/kg (Ex 14, [4] 10 mg/kg orally alone): 21%
- inhibition in vivo at 30 mg/kg (Ex 14, [4] 30 mg/kg orally alone): 22%

SMILES: COC1(c2cc(F)cc(Sc3ccc(C(F)(F)c4ccc(F)cc4)cc3)c2)CCOCC1 [[5], 4-[5-fluoro-3-(4-(4-fluoro-alpha,alpha-difluorobenzyl)phenylthio)phenyl]-4-methoxytetrahydropyran]
- inhibition in vivo at 3 mg/kg (Ex 15, [5] 3 mg/kg orally alone, asterisk (*): not statistically significant): 11%
- inhibition in vivo at 10 mg/kg (Ex 15, [5] 10 mg/kg orally alone, asterisk (*): not statistically significant): 16%
- inhibition in vivo at 30 mg/kg (Ex 15, [5] 30 mg/kg orally alone, asterisk (*): not statistically significant): 17%
